Measurements reported in patent US12286632B2, “Rationally-designed synthetic peptide shuttle agents for delivering polypeptide cargos from an extracellular space to the cytosol and/or nucleus of a target eukaryotic cell, uses thereof, methods and kits relating to same” (Feldan Bio Inc., priority 2016, dated 2025).
Ends that are not written are not given here.

Columns and labels:
[1] = system: HeLa cells; assay: FITC-labeled anti-tubulin antibody transduction assay (flow cytometry, cell viability, microscopy); conditions: FITC-labeled anti-tubulin antibody 0.5 μM, HeLa, 1 hour; shuttle 3.5 μM
Method: The delivery and microscopy protocols are described in Example 3.
HeLa cells were cultured and tested in the protein transduction assay described in Example 3.1. […] The cells were subjected to flow cytometry analysis as described in Example 3.3.

[2] = system: T cells; format: cell-based, human
Method: Unless otherwise specified, T cells used herein were obtained from healthy human blood collected in heparinized tubes. T cells were isolated using a Ficoll™ technique (Ficoll-Paque™ GE or Lymphoprep™ Stem Cell Technologies). Briefly, blood was mixed with the Ficoll™ solution in conical tubes (50 mL) and centrifuged at 2280 rpm for 20 minutes. Mononuclear cells were harvested and transferred in another conical tube (50 mL) before washing with PBS and centrifugation at 1100 rpm for 10 minutes. Cells were resuspended in 5 mL of PBS containing 20% FBS. Cells were counted and then incubated in a culture medium composed by RPMI advanced (cat: 12633012 ThermoFisher), 10% FBS, 1% Penstrep (15140122 ThermoFisher), 1% L-glutamine (25030081 ThermoFisher) IL-2 30U/ml). Next, T cells were enriched with a Human T cell Enrichment Kit (StemCell #cat: 19051) by negative selection following the manufacturer instructions. The enriched T cells were validated using a specific anti-CD3 antibody (Biolegend #cat: 300438). At this step, collected cells were typically around 99% T cells. T cells were activated by adding IL-2 at 30 U/mL and the anti-CD28 antibody (ThermoFisher #cat: 16-0289-85) in complete medium for 5 days prior to experimentation. The activation of T cell expansion was then double-checked with both anti-CD25 and anti-CD137 antibodies. […]

[3] = in vitro; conditions: human, HeLa cells, Cell viability (%) (±St Dev.; n = 3)
[4] = in vitro; conditions: human, THP-1 cells
[5] = in vitro; conditions: human, HeLa cells
[6] = Plasmid DNA (pEGFP-C1) transfection by peptides (% cells with GFP signal, cell viability); conditions: human, HeLa cells
[7] = in vitro
[8] = system: HeLa cells; assay: GFP-NLS protein transduction assay (flow cytometry: Pos cells %, viability %, relative fluorescence intensity; microscopy); conditions: Table 10.3b; Protocol B; HeLa; shuttle 50 μM; GFP-NLS 5 μM; 10 seconds

## CC[C@H](C)[C@H](NC(=O)[C@H](CCCCN)NC(=O)[C@H](CCCCN)NC(=O)[C@H](Cc1ccccc1)NC(=O)[C@H](CC(C)C)NC(=O)[C@H](CCCCN)NC(=O)[C@H](Cc1c[nH]c2ccccc12)NC(=O)[C@@H](N)CCCCN)C(=O)NCC(=O)N[C@@H](C)C(=O)N[C@H](C(=O)N[C@@H](CC(C)C)C(=O)N[C@@H](CCCCN)C(=O)N[C@H](C(=O)N[C@@H](CC(C)C)C(=O)N[C@H](C(=O)N[C@H](C(=O)NCC(=O)N[C@@H](CCCNC(=N)N)C(=O)N[C@@H](CCC(N)=O)C(=O)N[C@H](C(=O)N[C@@H](CCCCN)C(=O)N[C@H](C(=O)N[C@@H](Cc1c[nH]c2ccccc12)C(=O)N[C@@H](Cc1ccccc1)C(=O)N[C@@H](CCC(N)=O)C(=O)N[C@@H](CC(N)=O)C(=O)N[C@@H](CCCNC(=N)N)C(=O)N[C@@H](CCCNC(=N)N)C(=O)N[C@@H](CCSC)C(=O)N[C@@H](CCCCN)C(=O)N[C@@H](Cc1c[nH]c2ccccc12)C(=O)N[C@@H](CCCCN)C(=O)N[C@@H](CCCCN)C(=O)N[C@@H](CS)C(=O)O)[C@@H](C)CC)[C@@H](C)CC)[C@@H](C)O)[C@@H](C)O)C(C)C)C(C)C [CM18-Penetratin-Cys]
[1]
  FIG. 19B Cell viability (%) (± St. Dev.; n = 3): 73 ± 9.5%

## HHHHHHFLKIWSRLIKIWTQGRRKGAQAAFR [FSD21]
[2]
  viability of transduced T cells (FSC/SSC, in words): viability of the transduced T cells was not substantially affected
[3]
  viability: 75.6 ± 5.99%
[4]
  viability at 15 s, 5 µM: 62.5 ± 5.16%
  viability at 0.5 min, 2 µM: 75.6 ± 6.38%
[5]
  viability: 96.2 ± 1.69%

## HHHHHHVWKLFWTLLAAIYGRGKARQKRAKRQARG [Peptide F5D25]
[6]
  viability: 98.2 ± 1.19%

## HHHHHHYARAAARQARA [Peptide 6His-PTD4]
[6]
  viability: 97.2 ± 1.34%

## LLKLWSRLLKLWTQGGSGGGSGRRLKAKRAKA [FSD18]
[2]
  viability of transduced T cells (FSC/SSC, in words): viability of the transduced T cells was not substantially affected
[3]
  viability: 82.4%
[4]
  viability at 0.5 min, 2 µM: 97.9 ± 1.73%
  viability at 1 min, 1 µM: 95.3 ± 3.11%
  viability at 1 min, 2 µM: 98.6 ± 0.37%
  viability at 0.025 h, 1 µM: 86.5 ± 6.27%
[7]; NK cells
  viability at 0.25 h, 5 µM: 94.9 ± 1.63%
  viability at 0.5 h, 2 µM: 98.3 ± 1%
  viability at 1.5 h, 1 µM: 99.1 ± 0.08%
[7]; human, DOHH2 cells
  viability at 0.5 h, 2 µM: 79.8 ± 6.18%
  viability at 0.5 h, 10 µM: 25 ± 2.66%
  viability at 1.5 h, 1 µM: 62.5 ± 6.17%
[7]; human, Jurkat cells
  viability at 0.5 h, 2 µM: 97.4 ± 1.09%
  viability at 0.5 h, 10 µM: 96.6 ± 2.46%
  viability at 1.5 h, 1 µM: 98.6 ± 0.39%
[7]; human, KMS-12BM cells
  viability at 0.5 h, 2 µM: 95.1 ± 3.56%
  viability at 0.5 h, 10 µM: 92.7 ± 4.11%
  viability at 1.5 h, 1 µM: 97.6 ± 1.05%
[7]; human, REC-1 cells
  viability at 0.5 h, 2 µM: 99 ± 0.39%
  viability at 0.5 h, 10 µM: 25 ± 3.17%
  viability at 1.5 h, 1 µM: 96.2 ± 2.53%
[7]; mouse, HT2 cells
  viability at 0.5 h, 2 µM: 80.7 ± 7.1%
  viability at 0.5 h, 10 µM: 63.9 ± 5.35%
  viability at 1.5 h, 1 µM: 88.3 ± 7.91%

## YARAAARQARAWEAKLAKALAKALAKHLAKALAKALKACEA [PTD4-KALA]
[6]
  viability: 53.6 ± 3.91%
[8]
  Cell viability (%) (±St. Dev.; n = 3): 91.4 ± 3.67%
